Experimental data: patent publication US11459329B2, “Imidazopyridazine and imidazopyridine compounds and uses thereof” (Incyte Corporation, priority 2018, dated 2022)
Read-outs that look alike come from different tables or passages of the source.

Molecular target: ALK2 (aa 147-end) (Homo sapiens (Human), UniProt Q04771)
Assay: ALK2 HTRF Assay
Assay type: biochemical
Method: The enzymatic assays were conducted in white 384-well polystyrene plates in a final volume of 8 μL. The inhibitors were serially diluted in DMSO and added to the plate wells prior to addition of the other reaction components. The assays were carried out at 25° C. in the assay buffer (50 mM HEPES, pH 7.0, 10% Glycerol, 0.01% Brij50, 10 mM MgCl2, 1 mM EGTA, 5 mM DTT, and 0.01% BSA), containing 50 nM LANCE Ultra ULight™-DNA Topoisomerase 2-alpha peptide (Perkin Elmer TRF0130), and 3 μM ATP. The final concentration of DMSO in the assay was 1% and the enzyme concentration was 0.5 nM for ALK2. […] […] IC50 determination was performed by fitting percent control activity versus the log of the inhibitor concentration using the IDBS XLFit and GraphPad Prism 5.0 software.

[1] = 3 μM ATP, 0.5 nM ALK2, 2 hr, 25° C., read-out: ALK2 IC50

ALK2 (aa 147-end), sequence (Q04771 147-509): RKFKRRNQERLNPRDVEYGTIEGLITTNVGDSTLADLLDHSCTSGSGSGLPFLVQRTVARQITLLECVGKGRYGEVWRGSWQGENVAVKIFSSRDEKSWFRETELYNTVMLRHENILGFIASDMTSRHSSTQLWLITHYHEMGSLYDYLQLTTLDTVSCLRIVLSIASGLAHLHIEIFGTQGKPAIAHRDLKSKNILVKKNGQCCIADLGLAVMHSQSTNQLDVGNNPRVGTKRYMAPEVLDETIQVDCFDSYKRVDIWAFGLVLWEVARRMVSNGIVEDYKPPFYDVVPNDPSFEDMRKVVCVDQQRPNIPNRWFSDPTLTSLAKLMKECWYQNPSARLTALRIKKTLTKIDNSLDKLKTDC

SMILES | IC50 [1] [nM] | IC50 [nM]
Cc1nn2c(-c3ccnc4cc(N5CCN6C(=O)CCC6C5)ccc34)cnc2cc1-c1cnn([C@H]2CC[C@H](O)CC2)c1 (stereo partly drawn) [Example 34, 2-(4-(7-(1-((1R,4R)-4-hydroxycyclohexyl)-1H-pyrazol-4-yl)-6-methylimidazo[1,2-b]pyridazin-3-yl)quinolin-7-yl)hexahydropyrrolo[1,2-a]pyrazin-6(2H)-one] | 5 to 100 | 
Cc1cn2c(-c3ccnc4ccccc34)cnc2cc1-c1cnn(C2CCNCC2)c1 [Example 35, 4-(6-methyl-7-(1-(piperidin-4-yl)-1H-pyrazol-4-yl)imidazo[1,2-a]pyridin-3-yl)quinoline] | 1 to 5 | 
Cc1cn2c(-c3ccc(C(N)=O)c(F)c3)cnc2cc1-c1cnn(C2CCNCC2)c1 [Example 36, 2-fluoro-4-(6-methyl-7-(1-(piperidin-4-yl)-1H-pyrazol-4-yl)imidazo[1,2-a]pyridin-3-yl)benzamide] | < 1 | 
Cc1nn2c(-c3ccnc4nc(-c5ccccn5)ccc34)cnc2cc1-c1cnn([C@H]2CC[C@H](O)CC2)c1 [Example 37, (1R,4R)-4-(4-(6-Methyl-3-(7-(pyridin-2-yl)-1,8-naphthyridin-4-yl)imidazo[1,2-b]pyridazin-7-yl)-1H-pyrazol-1-yl)cyclohexan-1-ol] | < 1 | 
Cc1nn2c(-c3ccnc4nc(-c5ccccn5)ccc34)cnc2cc1-c1ccc(CN2CCC2)cc1 [Example 38, 5-(7-(4-(Azetidin-1-ylmethyl)phenyl)-6-methylimidazo[1,2-b]pyridazin-3-yl)-2-(pyridin-2-yl)-1,8-naphthyridine] | < 1 | 
CCn1cc(-c2cc3ncc(-c4ccnc5nc(-c6ccccn6)ccc45)n3nc2C)cn1 [Example 39, 5-(7-(1-Ethyl-1H-pyrazol-4-yl)-6-methylimidazo[1,2-b]pyridazin-3-yl)-2-(pyridin-2-yl)-1,8-naphthyridine] | 1 to 5 | 
Cc1nn2c(-c3ccnc4nc(-c5ncccn5)ccc34)cnc2cc1-c1cnn(C(C)C)c1 [Example 40, 5-(7-(1-Isopropyl-1H-pyrazol-4-yl)-6-methylimidazo[1,2-b]pyridazin-3-yl)-2-(pyrimidin-2-yl)-1,8-naphthyridine] | < 1 | 
Cc1nn2c(-c3ccnc4nc(-c5cnccn5)ccc34)cnc2cc1-c1cnn([C@H]2CC[C@H](O)CC2)c1 [Example 41, (1R,4R)-4-(4-(6-Methyl-3-(7-(pyrazin-2-yl)-1,8-naphthyridin-4-yl)imidazo[1,2-b]pyridazin-7-yl)-1H-pyrazol-1-yl)cyclohexan-1-ol] | 1 to 5 | 
Cc1nn2c(-c3ccnc4nc(-c5cnccn5)ccc34)cnc2cc1-c1ccc(CN2CCC2)cc1 [Example 42, 5-(7-(4-(Azetidin-1-ylmethyl)phenyl)-6-methylimidazo[1,2-b]pyridazin-3-yl)-2-(pyrazin-2-yl)-1,8-naphthyridine] | 1 to 5 | 
Cc1nn2c(-c3ccnc4nc(-c5cnccn5)ccc34)cnc2cc1-c1cnn(C(C)C)c1 [Example 43, 5-(7-(1-Isopropyl-1H-pyrazol-4-yl)-6-methylimidazo[1,2-b]pyridazin-3-yl)-2-(pyrazin-2-yl)-1,8-naphthyridine] | 1 to 5 | 
Cc1nn2c(-c3ccnc4nc(-c5cnccn5)ccc34)cnc2cc1-c1cnn(C2CCOCC2)c1 [Example 44, 5-(6-Methyl-7-(1-(tetrahydro-2H-pyran-4-yl)-1H-pyrazol-4-yl)imidazo[1,2-b]pyridazin-3-yl)-2-(pyrazin-2-yl)-1,8-naphthyridine] | 1 to 5 | 
Cc1nn2c(-c3ccnc4nc(-c5ccn(C)n5)ccc34)cnc2cc1-c1cnn(C(C)C)c1 [Example 45, 5-(7-(1-Isopropyl-1H-pyrazol-4-yl)-6-methylimidazo[1,2-b]pyridazin-3-yl)-2-(1-methyl-1H-pyrazol-3-yl)-1,8-naphthyridine] | 1 to 5 | 
Cc1nn2c(-c3ccnc4nc(-c5ccn(C)n5)ccc34)cnc2cc1-c1ccc(CN2CCC2)cc1 [Example 46, 5-(7-(4-(Azetidin-1-ylmethyl)phenyl)-6-methylimidazo[1,2-b]pyridazin-3-yl)-2-(1-methyl-1H-pyrazol-3-yl)-1,8-naphthyridine] | 5 to 100 | 
Cc1nn2c(-c3ccnc4nc(-c5ccn(C)n5)ccc34)cnc2cc1-c1ccc(C(=O)N(C)C)cc1 [Example 47, N,N-dimethyl-4-(6-methyl-3-(7-(1-methyl-1H-pyrazol-3-yl)-1,8-naphthyridin-4-yl)imidazo[1,2-b]pyridazin-7-yl)benzamide] | 1 to 5 | 
Cc1cc(-c2ccc3c(-c4cnc5cc(-c6ccc(CN7CCC7)cc6)c(C)nn45)ccnc3n2)n[nH]1 [Example 48, 5-(7-(4-(Azetidin-1-ylmethyl)phenyl)-6-methylimidazo[1,2-b]pyridazin-3-yl)-2-(5-methyl-1H-pyrazol-3-yl)-1,8-naphthyridine] | < 1 | 
Cc1cc(-c2ccc3c(-c4cnc5cc(-c6ccc(CN7CCOCC7)cc6)c(C)nn45)ccnc3n2)n[nH]1 [Example 49, 4-(4-(6-methyl-3-(7-(5-methyl-1H-pyrazol-3-yl)-1,8-naphthyridin-4-yl)imidazo[1,2-b]pyridazin-7-yl)benzyl)morpholine] | < 1 | 
Cc1cc(-c2ccc3c(-c4cnc5cc(-c6cnn(C(C)C)c6)c(C)nn45)ccnc3n2)n[nH]1 [Example 50, 5-(7-(1-Isopropyl-1H-pyrazol-4-yl)-6-methylimidazo[1,2-b]pyridazin-3-yl)-2-(5-methyl-1H-pyrazol-3-yl)-1,8-naphthyridine] | < 1 | 
Cc1nn2c(-c3ccnc4nc(-c5cnn(C)c5)ccc34)cnc2cc1-c1cnn(C(C)C)c1 [Example 51, 5-(7-(1-Isopropyl-1H-pyrazol-4-yl)-6-methylimidazo[1,2-b]pyridazin-3-yl)-2-(1-methyl-1H-pyrazol-4-yl)-1,8-naphthyridine] |  | 1 to 5
CCn1cnc(-c2ccc3c(-c4cnc5cc(-c6ccc(CN7CCCC7)cc6)c(C)nn45)ccnc3n2)c1 [Example 52, 2-(1-Ethyl-1H-imidazol-4-yl)-5-(6-methyl-7-(4-(pyrrolidin-1-ylmethyl)phenyl)imidazo[1,2-b]pyridazin-3-yl)-1,8-naphthyridine] | < 1 | 
CCn1cnc(-c2ccc3c(-c4cnc5cc(-c6ccc(CN7CCOCC7)cc6)c(C)nn45)ccnc3n2)c1 [Example 53, 4-(4-(3-(7-(1-Ethyl-1H-imidazol-4-yl)-1,8-naphthyridin-4-yl)-6-methylimidazo[1,2-b]pyridazin-7-yl)benzyl)morpholine] | 1 to 5 | 
CCn1cnc(-c2ccc3c(-c4cnc5cc(-c6ccc(CN(C)C)cc6)c(C)nn45)ccnc3n2)c1 [Example 54, 1-(4-(3-(7-(1-Ethyl-1H-imidazol-4-yl)-1,8-naphthyridin-4-yl)-6-methylimidazo[1,2-b]pyridazin-7-yl)phenyl)-N,N-dimethylmethanamine] | < 1 | 
CCn1cnc(-c2ccc3c(-c4cnc5cc(-c6cnn(C(C)C)c6)c(C)nn45)ccnc3n2)c1 [Example 55, 2-(1-Ethyl-1H-imidazol-4-yl)-5-(7-(1-isopropyl-1H-pyrazol-4-yl)-6-methylimidazo[1,2-b]pyridazin-3-yl)-1,8-naphthyridine] | 1 to 5 | 
CCn1cnc(-c2ccc3c(-c4cnc5cc(-c6ccc(CN7CCC7)cc6)c(C)nn45)ccnc3n2)c1 [Example 56, 5-(7-(4-(Azetidin-1-ylmethyl)phenyl)-6-methylimidazo[1,2-b]pyridazin-3-yl)-2-(1-ethyl-1H-imidazol-4-yl)-1,8-naphthyridine] | 1 to 5 | 
CCn1cnc(-c2ccc3c(-c4cnc5cc(-c6ccc(CN7CC(F)(F)C7)cc6)c(C)nn45)ccnc3n2)c1 [Example 57] | 1 to 5 | 
CCn1cnc(-c2ccc3c(-c4cnc5cc(-c6ccc(CN7CCO[C@@H](C)C7)cc6)c(C)nn45)ccnc3n2)c1 [Example 58, (S)-4-(4-(3-(7-(1-ethyl-1H-imidazol-4-yl)-1,8-naphthyridin-4-yl)-6-methylimidazo[1,2-b]pyridazin-7-yl)benzyl)-2-methylmorpholine] | < 1 | 
CCn1cnc(-c2ccc3c(-c4cnc5cc(-c6ccc(CN7CCO[C@H](CO)C7)cc6)c(C)nn45)ccnc3n2)c1 [Example 59, (S)-(4-(4-(3-(7-(1-ethyl-1H-imidazol-4-yl)-1,8-naphthyridin-4-yl)-6-methylimidazo[1,2-b]pyridazin-7-yl)benzyl)morpholin-2-yl)methanol] | 1 to 5 | 
Cc1cnn(-c2ccc3c(-c4cnc5cc(-c6ccc(CN7CCCC7)cc6)c(C)nn45)ccnc3n2)n1 [Example 60, 2-(4-Methyl-2H-1,2,3-triazol-2-yl)-5-(6-methyl-7-(4-(pyrrolidin-1-ylmethyl)phenyl)imidazo[1,2-b]pyridazin-3-yl)-1,8-naphthyridine] | 1 to 5 | 
Cc1cnn(-c2ccc3c(-c4cnc5cc(-c6cnn(C(C)C)c6)c(C)nn45)ccnc3n2)n1 [Example 61, 5-(7-(1-Isopropyl-1H-pyrazol-4-yl)-6-methylimidazo[1,2-b]pyridazin-3-yl)-2-(4-methyl-2H-1,2,3-triazol-2-yl)-1,8-naphthyridine] | 1 to 5 | 
Cc1cnn(-c2ccc3c(-c4cnc5cc(-c6cnn(C7CCOCC7)c6)c(C)nn45)ccnc3n2)n1 [Example 62, 2-(4-Methyl-2H-1,2,3-triazol-2-yl)-5-(6-methyl-7-(1-(tetrahydro-2H-pyran-4-yl)-1H-pyrazol-4-yl)imidazo[1,2-b]pyridazin-3-yl)-1,8-naphthyridine] | < 1 | 
Cc1cnn(-c2ccc3c(-c4cnc5cc(-c6ccc(CN(C)C)cc6)c(C)nn45)ccnc3n2)n1 [Example 63, N,N-dimethyl-1-(4-(6-methyl-3-(7-(4-methyl-2H-1,2,3-triazol-2-yl)-1,8-naphthyridin-4-yl)imidazo[1,2-b]pyridazin-7-yl)phenyl)methanamine] | 1 to 5 | 
